Legend:
IGROV1 = conditions: IGROV1, Ovarian Cancer; besylate salt
UO-31 = conditions: UO-31, Renal Cancer; besylate salt
OVCAR-4 [1] = conditions: OVCAR-4, Ovarian Cancer; besylate salt
CCRF-CEM = conditions: Leukemia, besylate salt
SN12C = experiment: cells; conditions: Homo sapiens
HCT-116 [2] = experiment: cells; conditions: Homo sapiens, HCT-116, read-out: LC50
SK-MEL-2 = experiment: cells; conditions: Homo sapiens
PC-3 = conditions: PC-3, Prostate Cancer; besylate salt
OVCAR-5 = experiment: cells; conditions: Homo sapiens
HCC-2998 [3] = conditions: HCC-2998, Colon Cancer; besylate salt
MDA-MB-435 = experiment: cells; conditions: Homo sapiens
SF-268 [4] = conditions: SF-268, CNS Cancer; besylate salt
ACHN = conditions: Renal Cancer, besylate salt
BT-549 = experiment: cells; conditions: Homo sapiens
SF-539 = experiment: cells; conditions: Homo sapiens
CAKI-1 = conditions: CAKI-1, Renal Cancer; besylate salt
OVCAR-8 = experiment: cells; conditions: Homo sapiens
HS 578T = experiment: cells; conditions: Homo sapiens
SK-MEL-5 = conditions: SK-MEL-5, Melanoma; besylate salt
LOX I MVI = conditions: Melanoma, besylate salt
NCI-H460 = experiment: cells; conditions: Homo sapiens, NCI-H460, read-out: LC50
K-562 = experiment: cells; conditions: Homo sapiens
HOP-92 = experiment: cells; conditions: Homo sapiens
MOLT-4 = conditions: MOLT-4, Leukemia; besylate salt
A498 = experiment: cells; conditions: Homo sapiens
SF-268 [5] = experiment: cells; conditions: Homo sapiens
786-0 [6] = conditions: 786-0, Renal Cancer; besylate salt
MDA-MB-231/ATCC = conditions: Breast Cancer, besylate salt
EKVX = experiment: cells; conditions: Homo sapiens
HCC-2998 [7] = experiment: cells; conditions: Homo sapiens
HCT-15 = experiment: cells; conditions: Homo sapiens, HCT-15, read-out: LC50
HCT-116 [8] = conditions: HCT-116, Colon Cancer; besylate salt
786-0 [9] = experiment: cells; conditions: Homo sapiens
SK-MEL-28 = conditions: SK-MEL-28, Melanoma; besylate salt
MALME-3M = experiment: cells; conditions: Homo sapiens
OVCAR-3 = experiment: cells; conditions: Homo sapiens
SNB-19 = experiment: cells; conditions: Homo sapiens
OVCAR-4 [10] = experiment: cells; conditions: Homo sapiens

`COc1cc(Nc2ncc(F)c(Nc3ccc4c(n3)NC(=O)C(C)(C)O4)n2)cc(OC)c1OC` [Compound 1] gave a TGI (IGROV1) greater than 1.00E−4, a TGI (UO-31) greater than 1.00E−4 and a TGI (OVCAR-4 [1]) greater than 1.00E−4. For the same molecule, the TGI (CCRF-CEM) was greater than 1.00E−4, the IC50 (SN12C; read-out: G150) was 0.698 µM and the CC50 (SN12C; read-out: LC50) was greater than 100 µM. The CC50 (HCT-116 [2]) was greater than 100 µM, the IC50 (SK-MEL-2; SK-MEL-2, read-out: G150) was greater than 100 µM and the CC50 (SK-MEL-2; SK-MEL-2, read-out: LC50) was greater than 100 µM. For the same molecule, the TGI (PC-3) was greater than 1.00E−4, the IC50 (OVCAR-5; OVCAR-5, read-out: G150) was greater than 100 µM and the CC50 (OVCAR-5; OVCAR-5, read-out: LC50) was greater than 100 µM. It also gave a TGI (HCC-2998 [3]) greater than 1.00E−4, an IC50 (MDA-MB-435; MDA-MB-435, read-out: G150) of 3.62 µM and a CC50 (MDA-MB-435; MDA-MB-435, read-out: LC50) greater than 100 µM. It also gave a TGI (SF-268 [4]) greater than 1.00E−4, a TGI (ACHN) greater than 1.00E−4 and an IC50 (BT-549; BT-549, read-out: G150) of 2.43 µM. For the same molecule, the CC50 (BT-549; BT-549, read-out: LC50) was greater than 100 µM, the IC50 (SF-539; SF-539, read-out: G150) was 0.605 µM and the CC50 (SF-539; SF-539, read-out: LC50) was greater than 100 µM. For the same molecule, the TGI (CAKI-1) was 2.44E−6, the IC50 (OVCAR-8; OVCAR-8, read-out: G150) was greater than 100 µM and the CC50 (OVCAR-8; OVCAR-8, read-out: LC50) was greater than 100 µM. It also gave an IC50 (HS 578T; read-out: G150) of 1.19 µM, a CC50 (HS 578T; read-out: LC50) greater than 100 µM and a TGI (SK-MEL-5) greater than 1.00E−4. It also gave a TGI (LOX I MVI) of 1.13E−6, a CC50 (NCI-H460) greater than 100 µM and an IC50 (K-562; K562, read-out: G150) greater than 100 µM. For the same molecule, the CC50 (K-562; K562, read-out: LC50) was greater than 100 µM, the IC50 (HOP-92; HOP-92, read-out: G150) was 0.41 µM and the CC50 (HOP-92; HOP-92, read-out: LC50) was greater than 100 µM. For the same molecule, the TGI (MOLT-4) was greater than 1.00E−4, the IC50 (A498; A498, read-out: G150) was 0.36 µM and the CC50 (A498; A498, read-out: LC50) was greater than 100 µM. It also gave an IC50 (SF-268 [5]; SF-268, read-out: G150) of 1.7 µM, a CC50 (SF-268 [5]; SF-268, read-out: LC50) greater than 100 µM and a TGI (786-0 [6]) greater than 1.00E−4. It also gave a TGI (MDA-MB-231/ATCC) greater than 1.00E−4, an IC50 (EKVX; read-out: G150) of 1.66 µM and a CC50 (EKVX; read-out: LC50) greater than 100 µM. For the same molecule, the IC50 (HCC-2998 [7]; HCC 2998, read-out: G150) was greater than 100 µM, the CC50 (HCC-2998 [7]; HCC 2998, read-out: LC50) was greater than 100 µM and the CC50 (HCT-15) was greater than 100 µM. The TGI (HCT-116 [8]) was greater than 1.00E−4, the IC50 (786-0 [9]; 786-0, read-out: G150) was 0.873 µM and the CC50 (786-0 [9]; 786-0, read-out: LC50) was greater than 100 µM. For the same molecule, the TGI (SK-MEL-28) was greater than 1.00E−4, the IC50 (MALME-3M; read-out: G150) was greater than 100 µM and the CC50 (MALME-3M; read-out: LC50) was greater than 100 µM. The IC50 (OVCAR-3; OVCAR-3, read-out: G150) was greater than 100 µM, the CC50 (OVCAR-3; OVCAR-3, read-out: LC50) was greater than 100 µM and the IC50 (SNB-19; SNB-19, read-out: G150) was greater than 100 µM. The CC50 (SNB-19; SNB-19, read-out: LC50) was greater than 100 µM, the IC50 (OVCAR-4 [10]; OVCAR-4, read-out: G150) was greater than 100 µM and the CC50 (OVCAR-4 [10]; OVCAR-4, read-out: LC50) was greater than 100 µM.

Reference: patent US20090048214A1, “Methods for Treating Renal Tumors Using 2, 4-Pyrimidinediamine Drug and Prodrug Compounds” (RIGEL PHARMACEUTICALS, INC, priority 2006, published 2009)
